These results are taken from ChEMBL document CHEMBL1131047, “Novel nonnucleoside inhibitors of HIV-1 reverse transcriptase. 7. 8-Arylethyldipyridodiazepinones as potent broad-spectrum inhibitors of wild-type and mutant enzymes” (J Med Chem, 1998).

A value given as a limit tells only on which side of the number the result lay.

As usually defined, the IC50 is the point on the concentration scale where inhibition reaches its midpoint.

Assay [1] deals with Human immunodeficiency virus type 1 reverse transcriptase (Human immunodeficiency virus 1, UniProt Q72547). As to the kind of experiment: Inhibitory activity against HIV-1 wild-type reverse transcriptase.
The target in assay [2] is Human immunodeficiency virus type 1 reverse transcriptase (Human immunodeficiency virus 1, UniProt Q72547, Y181C). As to the kind of experiment: Inhibitory activity against HIV-1 Y181C reverse transcriptase.
Assay [3] deals with Human immunodeficiency virus type 1 reverse transcriptase (Human immunodeficiency virus 1, UniProt Q72547, Y188L). Briefly: Inhibitory activity against HIV-1 Y188L reverse transcriptase.
Another assay deals with C8166. Briefly: Inhibitory activity against HIV-1 IIIB replication in C8166 cells. It counts as functional, cell-based. Particulars: Homo sapiens.
The target in assay [4] is Human immunodeficiency virus type 1 reverse transcriptase (Human immunodeficiency virus 1, UniProt Q72547, V106A). Briefly: Inhibitory activity against HIV-1 Mutant Reverse transcriptase V106A.
Assay [5] addresses Human immunodeficiency virus type 1 reverse transcriptase (Human immunodeficiency virus 1, UniProt Q72547, K103N). Briefly: Inhibitory activity against HIV-1 Mutant Reverse transcriptase K103N.
In assay [6] the target is Human immunodeficiency virus type 1 reverse transcriptase (Human immunodeficiency virus 1, UniProt Q72547, P236L). As to the kind of experiment: Inhibitory activity against HIV-1 Mutant Reverse transcriptase P236L.
For assay [7], the target named is Human immunodeficiency virus type 1 reverse transcriptase (Human immunodeficiency virus 1, UniProt Q72547, G190A). Briefly: Inhibitory activity against HIV-1 Mutant Reverse transcriptase G190A.

As for `CCN1c2ncc(CCc3ccc(N)cc3)cc2C(=O)N(C)c2cccnc21`, the IC50 in assay [1] was 60 nM; in assay [2], 200 nM; in assay [3], over 1000 nM.

For the compound `CCN1c2ncc(CCc3ccc4ccccc4c3)cc2C(=O)N(C)c2ccc(Cl)nc21`, the figures for the IC50 in assay [1], in assay [2] and in assay [3] were 1020 nM, 2880 nM and over 1000 nM, respectively.

As to `CCN1c2ncc(CCc3cccc(C)c3)cc2C(=O)N(C)c2cccnc21`, the figures for the IC50 in assay [1], in assay [2] and in assay [3] were 110 nM, 280 nM and over 1000 nM, respectively.

As for `CCN1c2ncc(CCc3ccc4ccccc4c3)cc2C(=O)N(C)c2ccc(F)nc21`, the results for the concentration for half-maximal inhibition (IC50) in assay [1], in assay [2] and in assay [3] were 20 nM, 30 nM and over 1000 nM, respectively.

Consider `CCN1c2ncc(CCc3cccc(C)c3)cc2C(=O)N(C)c2ccc(Cl)nc21`, for which the IC50 in assay [1] was 110 nM; in assay [2], 460 nM; in assay [3] it was over 1000 nM.

Turning to `CCN1c2ncc(CCc3ccncc3)cc2C(=O)N(C)c2cccnc21`, the concentration for half-maximal inhibition (IC50) in assay [1] is 30 nM; in assay [2] it was 110 nM; in assay [3] it was over 1000 nM; in the assay with C8166 it was 25 nM.

Consider `CCN1c2ncc(Cl)cc2C(=O)N(C)c2cccnc21`, for which the figures for the half-inhibitory concentration (IC50) in assay [1] and in assay [2] were 540 nM and over 1000 nM, respectively.

As for `CCN1c2ncc(CCc3ccc4ccccc4c3)cc2C(=O)N(C)c2cccnc21`, the values for the IC50 in assay [1], in assay [2] and in assay [3] were 80 nM, 150 nM and over 1000 nM, respectively.

In the case of `CCN1c2ncc(CCc3cccc(F)c3)cc2C(=O)N(C)c2cccnc21`, the half-inhibitory concentration (IC50) was 120 nM in assay [1], 370 nM in assay [2] and over 1000 nM in assay [3].

As for `CCN1c2ncc(C)cc2C(=O)N(C)c2cccnc21`, the half-inhibitory concentration (IC50) in assay [1] was 750 nM; in assay [2], over 1000 nM.

For `CCN1c2ncc(CCc3ccccc3N)cc2C(=O)N(C)c2cccnc21`, the half-maximal inhibitory concentration (IC50) in assay [1] was 80 nM; in assay [2], 1700 nM; in assay [3], over 1000 nM.

In assay [1], `CCN1c2ncc(/C=C/C(=O)OC)cc2C(=O)N(C)c2cccnc21` registered a concentration for half-maximal inhibition (IC50) of over 1000 nM.

Take `CCN1c2ncc(CCc3cncnc3)cc2C(=O)N(C)c2cccnc21`: the half-inhibitory concentration (IC50) in assay [1] is 540 nM; in assay [2], over 1000 nM; in assay [3] it was over 1000 nM.

`CCN1c2ncc(CO)cc2C(=O)N(C)c2cccnc21`: the values for the IC50 in assay [1] and in assay [2] were 50 nM and 740 nM, respectively.

On to `CCN1c2ncc(CCc3cccnc3)cc2C(=O)N(C)c2cccnc21`, for which the IC50 in assay [1] was 130 nM; in assay [2], 320 nM; in assay [3], over 1000 nM.

Compound `CCN1c2ncc(NC(N)=O)cc2C(=O)N(C)c2cccnc21` yielded a half-inhibitory concentration (IC50) in assay [1] of 1100 nM.

Take `CCN1c2ncc(/C=C\c3ccccc3)cc2C(=O)N(C)c2cccnc21`: the 50% inhibitory concentration (IC50) in assay [1] was found to be 250 nM; in assay [2], 580 nM.

Take `CCN1c2ncc(CCc3cccc(N)c3)cc2C(=O)N(C)c2ccc(Cl)nc21`: the half-inhibitory concentration (IC50) was 90 nM in assay [4]; 120 nM in assay [1]; 10 nM in assay [5]; 40 nM in assay [6]; 230 nM in assay [2]; 10 nM in assay [7]. Moreover, in assay [3], the IC50 came to 250 nM.

For `CCN1c2ncc(CCc3ccnc(C)c3)cc2C(=O)N(C)c2ccc(Cl)nc21`, the IC50 is 60 nM in assay [1], 140 nM in assay [2] and over 1000 nM in assay [3].

For `CCN1c2ncc(CCc3ccnc(C)c3)cc2C(=O)N(C)c2cccnc21`, the concentration for half-maximal inhibition (IC50) in assay [1] is 30 nM; in assay [2], 90 nM; in assay [3], over 1000 nM.

For `CCN1c2ncc(CCc3ccnc(C(=O)O)c3)cc2C(=O)N(C)c2ccc(Cl)nc21`, the IC50 was 1500 nM in assay [1], 3800 nM in assay [2] and over 1000 nM in assay [3].

`CCN1c2ncc(Cc3ccccc3)cc2C(=O)N(C)c2cccnc21`: the figures for the IC50 in assay [1] and in assay [2] were 120 nM and 1200 nM, respectively.

In the case of `CCN1c2ncc(CCc3cccc(NC(N)=O)c3)cc2C(=O)N(C)c2ccc(Cl)nc21`, the IC50 in assay [1] is 60 nM; in assay [2], 80 nM; in assay [3], 230 nM; with C8166, 39 nM.

Consider `CCN1c2ncc(CCc3ccncc3)cc2C(=O)N(C)c2ccc(Cl)nc21`, for which the 50% inhibitory concentration (IC50) with C8166 stood at 9 nM.

As to `CCN1c2ncc(-c3cccc(OC)c3)cc2C(=O)N(C)c2cccnc21`, the concentration for half-maximal inhibition (IC50) in assay [1] and in assay [2] was over 1000 nM each time.

Turning to `CCN1c2ncc(CCc3cccc(N=[N+]=[N-])c3)cc2C(=O)N(C)c2ccc(Cl)nc21`, the IC50 in assay [1] is 80 nM; in assay [2] it was 160 nM; in assay [3], over 1000 nM.

For `CCN1c2ncc(CCc3ccnc(C(=O)OC)c3)cc2C(=O)N(C)c2ccc(Cl)nc21`, the results for the IC50 in assay [1], in assay [2] and in assay [3] were 150 nM, 480 nM and 6000 nM, respectively.

Turning to `CCN1c2ncc(CCC(N)=O)cc2C(=O)N(C)c2cccnc21`, the figures for the 50% inhibitory concentration (IC50) in assay [1] and in assay [2] were 620 nM and 6100 nM, respectively.

In assay [1], `CCN1c2ncc(N)cc2C(=O)N(C)c2cccnc21` returned an IC50 of 100 nM.

With `CCN1c2ncc(CCCc3ccccc3)cc2C(=O)N(C)c2cccnc21`, the half-inhibitory concentration (IC50) in assay [1] was determined as 120 nM; in assay [2] it was 1170 nM.

For the compound `CCN1c2ncc(CCc3ccccc3C)cc2C(=O)N(C)c2cccnc21`, the values for the concentration for half-maximal inhibition (IC50) in assay [1], in assay [2] and in assay [3] were 200 nM, 1600 nM and over 1000 nM, respectively.

As for `CCN1c2ncc(CCCO)cc2C(=O)N(C)c2cccnc21`, the IC50 in assay [1] is 300 nM; in assay [2], 2900 nM.

With `CCN1c2ncc(CCc3cccc(NS(C)(=O)=O)c3)cc2C(=O)N(C)c2ccc(Cl)nc21`, the IC50 in assay [1] was 140 nM; in assay [2] it was 140 nM; in assay [3] it was over 1000 nM.

Consider `CCN1c2ncc(CCc3cccc(N)c3)cc2C(=O)N(C)c2cccnc21`, for which the concentration for half-maximal inhibition (IC50) in assay [1] was 40 nM; in assay [2], 70 nM; in assay [3] it was over 1000 nM.

The compound `CCN1c2ncc(C(=O)O)cc2C(=O)N(C)c2cccnc21` registered a half-maximal inhibitory concentration (IC50) in assay [1] of over 1000 nM.

Regarding `CCN1c2ncc(CCc3ccc(N)cc3)cc2C(=O)N(C)c2ccc(Cl)nc21`, the results for the concentration for half-maximal inhibition (IC50) in assay [1], in assay [2] and in assay [3] were 160 nM, 360 nM and over 1000 nM, respectively.

In the case of `CCN1c2ncc(CCc3ccccc3C)cc2C(=O)N(C)c2ccc(Cl)nc21`, the IC50 in assay [1], in assay [2] and in assay [3] was over 1000 nM each time.

Regarding `CCN1c2ncc(CCc3ccncc3)cc2C(=O)N(C)c2ccc(C#N)nc21`, the IC50 was 460 nM in assay [1], 290 nM in assay [2] and over 1000 nM in assay [3].

Regarding `CCN1c2ncc(/C=C/c3ccncc3)cc2C(=O)N(C)c2cccnc21`, the results for the half-inhibitory concentration (IC50) in assay [1] and in assay [2] were 3000 nM and over 1000 nM, respectively.

Turning to `CCN1c2ncc(CCc3ccncc3)cc2C(=O)N(C)c2ccc(F)nc21`, the IC50 came out at 250 nM in assay [4]; 50 nM in assay [1]; 20 nM in assay [5]; 50 nM in assay [6]; 80 nM in assay [2]; 60 nM in assay [7]. The 50% inhibitory concentration (IC50) in assay [3] turned out to be 250 nM.

In the case of `CCN1c2ncc(CCc3ccc(C)cc3)cc2C(=O)N(C)c2cccnc21`, the IC50 is 100 nM in assay [1], 250 nM in assay [2] and over 1000 nM in assay [3].

In the case of `CCN1c2ncc(CCc3ccccn3)cc2C(=O)N(C)c2cccnc21`, the IC50 in assay [1] was 190 nM; in assay [2] it was over 1000 nM; in assay [3] it was over 1000 nM.

Regarding `CCN1c2ncc(CCC(=O)OC)cc2C(=O)N(C)c2cccnc21`, the values for the IC50 in assay [1] and in assay [2] were 90 nM and 140 nM, respectively.

For `CCN1c2ncc(CCc3ccccc3)cc2C(=O)N(C)c2ccc(C3=CCC=N3)nc21`, the half-inhibitory concentration (IC50) came out at 590 nM in assay [1], 520 nM in assay [2] and 1280 nM in assay [3].

In assay [1], `CCN1c2ncccc2C(=O)N(C)c2cccnc21` had a 50% inhibitory concentration (IC50) of 90 nM.

Turning to `CCN1c2ncc(CCc3nccs3)cc2C(=O)N(C)c2cccnc21`, the values for the concentration for half-maximal inhibition (IC50) in assay [1], in assay [2] and in assay [3] were 40 nM, 440 nM and over 1000 nM, respectively.

For `CCN1c2ncc(CCO)cc2C(=O)N(C)c2cccnc21`, the half-inhibitory concentration (IC50) in assay [1] turned out to be 430 nM; in assay [2] it was 2500 nM.

For `CCN1c2ncc(CCc3ccc(NS(C)(=O)=O)cc3)cc2C(=O)N(C)c2ccc(Cl)nc21`, the results for the IC50 in assay [1], in assay [2] and in assay [3] were 330 nM, 560 nM and over 1000 nM, respectively.

Regarding `CCN1c2ncc(CCc3ccccc3)cc2C(=O)N(C)c2cccnc21`, the IC50 amounted to 50 nM in assay [1] and 130 nM in assay [2].

In the assay with C8166, `CCN1c2ncc(CCc3ccccc3)cc2C(=O)N(C)c2ccc(Cl)nc21` returned an IC50 of 12 nM.

Take `CCN1c2ncc(CCC#N)cc2C(=O)N(C)c2cccnc21`: the IC50 in assay [1] came out at 210 nM; in assay [2], 2160 nM.

Regarding `CCN1c2ncc(CCc3ccc(C)cc3)cc2C(=O)N(C)c2ccc(Cl)nc21`, the IC50 in assay [1] is 230 nM; in assay [2] it was 1180 nM; in assay [3], over 1000 nM.

As to `CCN1c2ncc(CCc3ccnc(CO)c3)cc2C(=O)N(C)c2ccc(Cl)nc21`, the concentration for half-maximal inhibition (IC50) was 160 nM in assay [1], 280 nM in assay [2] and over 1000 nM in assay [3].

For `CCN1c2ncc(CCc3ccncc3)cc2C(=O)N(C)c2ccc(I)nc21`, the 50% inhibitory concentration (IC50) in assay [1] was determined as 90 nM; in assay [2], 180 nM; in assay [3], 430 nM.

`CCN1c2ncc(CCc3ccnc(C(N)=O)c3)cc2C(=O)N(C)c2ccc(Cl)nc21`: the IC50 in assay [1] turned out to be 50 nM; in assay [2] it was 250 nM; in assay [3], 4000 nM.
